Measurements from ChEMBL document CHEMBL5465560, “Selectivity Literature for EUbOPEN Chemogenomic Library” (2024).
Changes are numbered by the printed parent chain.

Key:
Conditions in all cases: at 10 µM
[1] = target: Receptor-type tyrosine-protein kinase FLT3 (Homo sapiens) (UniProt P36888); experiment: (§1) Selectivity interaction (KinomeScan (DiscoverX)) EUB0000092b FLT3
[2] = system: T1, Receptor-type tyrosine-protein kinase FLT3 (Homo sapiens), P36888 [D835H]; experiment: as §1
T1 sequence (whole entry): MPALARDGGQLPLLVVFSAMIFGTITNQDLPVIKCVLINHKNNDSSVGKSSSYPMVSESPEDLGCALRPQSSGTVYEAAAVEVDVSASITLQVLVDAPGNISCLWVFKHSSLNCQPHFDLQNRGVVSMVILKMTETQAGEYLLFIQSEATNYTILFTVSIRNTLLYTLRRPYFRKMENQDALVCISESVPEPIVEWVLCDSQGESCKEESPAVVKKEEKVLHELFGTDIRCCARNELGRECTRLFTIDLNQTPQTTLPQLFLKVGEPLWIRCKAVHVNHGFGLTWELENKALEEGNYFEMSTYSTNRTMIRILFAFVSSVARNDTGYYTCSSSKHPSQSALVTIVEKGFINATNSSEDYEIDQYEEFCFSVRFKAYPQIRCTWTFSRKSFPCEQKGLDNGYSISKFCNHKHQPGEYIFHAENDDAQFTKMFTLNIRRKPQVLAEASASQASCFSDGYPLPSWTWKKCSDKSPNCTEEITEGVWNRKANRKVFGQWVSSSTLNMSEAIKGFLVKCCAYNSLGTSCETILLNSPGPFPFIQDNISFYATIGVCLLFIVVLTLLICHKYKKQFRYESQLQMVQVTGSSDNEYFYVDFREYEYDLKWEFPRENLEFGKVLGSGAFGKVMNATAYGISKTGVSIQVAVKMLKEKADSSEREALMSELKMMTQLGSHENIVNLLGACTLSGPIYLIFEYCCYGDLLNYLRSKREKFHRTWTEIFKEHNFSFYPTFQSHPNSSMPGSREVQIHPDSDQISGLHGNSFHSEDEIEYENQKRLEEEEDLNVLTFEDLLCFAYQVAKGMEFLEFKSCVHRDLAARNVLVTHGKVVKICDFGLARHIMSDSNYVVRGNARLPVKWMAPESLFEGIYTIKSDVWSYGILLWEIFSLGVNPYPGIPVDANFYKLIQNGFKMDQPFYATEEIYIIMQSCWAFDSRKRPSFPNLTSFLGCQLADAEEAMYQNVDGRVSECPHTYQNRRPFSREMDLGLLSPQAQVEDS

[3] = system: T2, Receptor-type tyrosine-protein kinase FLT3 (Homo sapiens), P36888 [D835Y]; experiment: as §1
T2 sequence (whole entry): T1 sequence (whole entry) with H835Y

[4] = system: T3, Receptor-type tyrosine-protein kinase FLT3 (Homo sapiens), P36888 [N841I]; experiment: as §1
T3 sequence (whole entry): T1 sequence (whole entry) with H835D, N841I

## CCC(=O)N1CCN(c2ccc(-n3c(=O)ccc4cnc5ccc(-c6cnc7ccccc7c6)cc5c43)cc2C(F)(F)F)CC1
[1]
  % of control: 16%
[2]
  % of control: 18%
[3]
  % of control: 16%
[4]
  % of control: 8.8%
